Test results from US7279502B2, “Polyamine analog conjugates and quinone conjugates as therapies for cancers and prostate diseases” (Cellgate, Inc., priority 1999, dated 2007).
Where two headings read alike, the source gives them in different places.

Legend:
Assay type in all cases: cell-based
[1] = test system: human prostate adenocarcinoma cell line PC-3; assay: MTT assay, quinones, PC-3; conditions: Table 3, treatment time not given in cell, read-out: ID50 PC-3
Protocol: (§1) Cell Culture: The human lung adenocarcinoma cell line, A549, and human prostatic cancer cell line, DUPRO, were a gift from Dr. M. Eileen Dolan, University of Chicago, Department of Medicine. A549 was grown in Ham's F-12K medium (Fisher Scientific, Itasca, Ill.) supplemented with 10% fetal bovine serum and 2 mM L-glutamine. DUPRO was grown in RPMI-1640 supplemented with 10% fetal bovine serum. The human colon carcinoma cell line, HT29, and the human breast carcinoma cell line, MCF7, were obtained from the American Type Culture Collection, Rockville, Md. HT29 cells were grown in McCoy's 5A medium (Gibco, BRL, Gaithersburg, Md.) supplemented with 10% fetal bovine serum. MCF7 cells were grown in Richter's Improved Modified Eagle's medium supplemented with 10% fetal bovine serum and 2.2 g/L sodium bicarbonate. The human prostate adenocarcinoma cell lines, LNCAP, PC-3 and DU145, were gifts from Dr. George Wilding, University of Wisconsin Comprehensive Cancer Center and the Department of Medicine, and were grown in Dulbecco's Modified Eagle's medium supplemented with a 5% fetal bovine serum. The malignant glioma cell line, U251MG NCI was obtained from the brain tumor tissue bank at the University of California, San Francisco Department of Neurosurgery, and was grown in Dulbecco's Modified Eagle's medium supplemented wth 10% fetal bovine serum. DUPRO, A549 and MCF7 cells were grown in 100 units/mL penicillin and 100 μg/mL streptomycin. HT29 and U251MG NCI cells were grown in 50 μg/mL gentamycin. LNCAP, PC-3 and DU145 cells were maintained in 1% antibiotic antimycotic solution (Sigma, St. Louis, Mo.). All cell cultures were maintained at 37° C. in 5% CO2/95% humidified air.
(§2) MTT assay. Exponentially growing monolayer cells were plated in 96 well plates at a density of 500 cells/well and allowed to grow for 24 h. Serially diluted drug solutions were added such that the final drug concentrations in the treatment media were between 0 and 35 μM. Cells were incubated with drug at either 4 hr or 72 hr. After 4 hr and 72 hr treatment, drugs were removed, fresh media (without) drug (100 uL) was added and cells were incubated for 6 days. After six days, 25 μL of a Dulbecco's phosphate-buffered saline solution containing 5 mg/mL of MTT (Thiazolyl blue) (Sigma) was added to each well and incubated for 4 h at 37° C. Then 100 μL of lysis buffer (20% sodium dodecyl sulfate, 50% N,N-dimethylformamide and 0.8% acetic acid, pH 4.7) was added to each well and incubated for an additional 22 h. A microplate reader (E max, Molecular Devices, Sunnyvale, Calif.) set at 570 nm was used to determine the optical density. Results were plotted as a ratio of the optical density in drug treated wells to the optical density in wells treated with vehicle alone. Plotting and estimation of ID50 values were accomplished with manufacturer supplied software. The data is presented below in Tables 3, 4, 5 and 6.

[2] = test system: human breast carcinoma cell line, MCF7; assay: MTT assay, quinones, MCF7; conditions: Table 4, treatment time not given in cell, read-out: ID50 Breast MCF7
Protocol: as §1, §2

[3] = test system: human prostate cancer cells PC3; assay: MTT assay, polyamine analogs, PC3; conditions: for EC50: PC-3, survival of cultured PC3 cells, figure legends, read-out: ED50 (the source's name)
Protocol: (§3) Human breast cancer cell line MCF7 was grown in Richter's Improved Modified Eagle's Medium supplemented with 10% fetal bovine serum (FBS) and 2.2 g/L sodium bicarbonate. Human brain tumor cell line U251 MG-NCI was grown in Dulbecco's Modified Eagle's Medium supplemented with 10% FBS. Human lung cancer cell line A549 was grown in Ham's F-12K medium (Cellgro, Mediatech, Inc., VA), supplemented with 10% FBS and 2 mM L-glutamine. Human colon cancer cell line HT29 was cultured in McCoy's 5A medium (Gibco, BRL, Gaithersburg, Md.) supplemented with 10% FBS. Human prostate cancer cell lines PC-3, LNCAP and DuPro were grown in RPMI 1640 Medium (Cellgro, Mediatech, Inc., VA) supplemented with 10% FBS. Another human prostate cancer cell line DU145 was grown in Dulbecco's Modified Eagle's Medium (Gibco, BRL, Gaithersburg, Md.) supplemented with 5% FBS. The A549, MCF7, PC3, LNCAP and DuPro cell lines were cultured in 100 units/mL penicillin and 100 μg/mL streptomycin. HT29 and U251MG cell lines were grown in 50 μg/mL gentamycin (Gibco, BRL, Gaithersburg, Md.). DU145 cell line was maintained in 1% antibitic-antimycotic solution (Sigma, St. Louis, Mo.). The cell cultures were maintained at 37° C. in 5% CO2/95% humidified air. DuPro cells were obtained from M. Eileen Dolan, University of Chicago. All other cells are available from the American Type Culture Collection, Rockville, Md.
(§4) A conventional MTT assay was used to evaluate percent cell survival. Exponentially growing monolayer cells were plated in 96-well plates at a density of 500 cells per well and allowed to grow for 24 hours. Serial dilutions of the drugs were added to the wells. Six days after drug treatment, 25 μl of MTT solution (5 mg/ml) was added to each well and incubated for 4 hours at 37° C. Then 100 μl of lysis buffer (20% sodium dodecyl sulfate, 50% DMF, and 0.8% acetic acid, pH 4.7) was added to each well and incubated for an additional 22 hours. A microplate reader (“EMAX”-brand, Molecular Devices, Sunnyvale, Calif.) set at 570 nm was used to determine the optical density of the cultures. Results are expressed as a ratio of the optical density in drug-treated wells to the optical density in wells treated with vehicle only.

[4] = test system: human prostate cancer cells DU145; assay: MTT assay, polyamine analogs, DU145; conditions: for EC50: figure legends, read-out: ED50 (the source's name); for IC50: DU-145, 144 h, read-out: concentration needed for 50% growth inhibition (ID50) DU-145, Table 2, MTT six days after drug treatment
Protocol: as §3, §4

[5] = test system: human prostate cancer cells LNCAP; assay: MTT assay, polyamine analogs, LNCAP; conditions: survival of cultured LNCAP cells, figure legends, read-out: ED50 (the source's name)
Protocol: as §3
A conventional MTT assay was used to evaluate percent cell survival. Exponentially growing monolayer cells were plated in 96-well plates at a density of 500 cells per well and allowed to grow for 24 hours. Serial dilutions of the drugs were added to the wells. Six days after drug treatment, 25 μl of MTT solution (5 mg/ml) was added to each well and incubated for 4 hours at 37° C. […] A microplate reader (“EMAX”-brand, Molecular Devices, Sunnyvale, Calif.) set at 570 nm was used to determine the optical density of the cultures. Results are expressed as a ratio of the optical density in drug-treated wells to the optical density in wells treated with vehicle only.

[6] = test system: human colon cancer cells HT29; assay: MTT assay, polyamine analogs, HT29; conditions: for EC50: HT-29, survival of cultured HT29 cells, figure legends, read-out: ED50 (the source's name); for IC50: HT-29, 144 h, read-out: concentration needed for 50% growth inhibition (ID50) HT-29, Table 2, MTT six days after drug treatment
Protocol: (§5) As shown in Table 2 and FIGS. 1-32, several novel conformationally restricted polyamine analogs were tested for anti-proliferative properties against cancer cells.
as §3, §4

[7] = test system: human lung cancer cells A549; assay: MTT assay, polyamine analogs, A549; conditions: for EC50: A549, survival of cultured A549 cells, figure legends, read-out: ED50 (the source's name)
Protocol: as §5, §3, §4

[8] = test system: human brain tumor cells U251 MG NCI; assay: MTT assay, polyamine analogs, U251 MG NCI; conditions: for EC50: U-251, survival of cultured U251 MG NCI cells, figure legends, read-out: ED50 (the source's name); for IC50: U-251, 144 h, read-out: concentration needed for 50% growth inhibition (ID50) U251MG, Table 2, MTT six days after drug treatment
Protocol: as §3, §4

[9] = test system: human breast cancer cells MCF7; assay: MTT assay, polyamine analogs, MCF7; conditions: for IC50: MCF7, 144 h, read-out: concentration needed for 50% growth inhibition (ID50) MCF7, Table 2, MTT six days after drug treatment; for EC50: MCF7, survival of cultured MCF7 cells, figure legends, read-out: ED50 (the source's name)
Protocol: as §5, §3, §4

[10] = test system: human prostate cancer cells DUPRO; assay: MTT assay, polyamine analogs, DUPRO; conditions: for IC50: 144 h, read-out: concentration needed for 50% growth inhibition (ID50) DUPRO, Table 2, MTT six days after drug treatment; for EC50: survival of cultured DUPRO cells, figure legends, read-out: ED50 (the source's name)
Protocol: as §3, §4

[11] = Homo sapiens, DU-145, survival of cultured DU145 cells
[12] = Homo sapiens, A549, 144 h, read-out: concentration needed for 50% growth inhibition (ID50) A549, Table 2, MTT six days after drug treatment
[13] = read-out: concentration needed for 50% growth inhibition (ID50) A549, Table 2, MTT six days after drug treatment

SMILES	EC50 [3]	EC50 [4, 11]	EC50 [6]	EC50 ([7]; Homo sapiens)	EC50 [8]	IC50 ([4]; Homo sapiens)	IC50 [6]	IC50 [7, 12]	IC50 [9]	EC50 [9]	IC50 [8]	IC50 ([10]; Homo sapiens, DuPro)	other results
CCCCN/C=C1\C=C(O)C(=O)c2ccccc21 [SL-11089]	–	–	–	–	–	–	–	–	–	–	–	–	IC50 [1]: 11 µM; IC50 [2]: > 31.2 µM
CCNCCCCNCC1CC1CNCCCCNCC (centres unmarked) [SL-11093]	1.6 µM	0.016 µM	0.4 µM	0.26 µM	0.07 µM	–	–	–	–	–	–	–	EC50 ([5]; Homo sapiens, LNCaP): 0.21 µM
CCNCCCNCc1ccccc1CNCCCNCC [SL-11094]	> 31.2 µM	15.4 µM	28.8 µM	> 31.2 µM	> 31.2 µM	12.6 µM	28.8 µM	> 31.2 µM	> 31.2 µM	> 31.2 µM	> 31.2 µM	–	–
CCCCN(CC1=CC(=O)C(=O)c2ccccc21)C(=O)CCC(=O)N1CCOCC1 [SL-11096]	–	–	–	–	–	–	–	–	–	–	–	–	IC50 [1]: 3.6 µM; IC50 [2]: 3.8 µM
CCNCCCCNCC1CC1CNCCCCNCC (centres unmarked) [SL-11098]	–	–	–	–	–	0.018 µM	0.4 µM	0.51 µM	–	–	0.1 µM	0.08 µM	–
CCNCCCCNCC1CCC1CNCCCCNCC (centres unmarked) [SL-11099]	2.5 µM	0.014 µM	1 µM	0.51 µM	0.11 µM	0.014 µM	1 µM	–	26.3 µM	26.3 µM	0.11 µM	–	IC50 [7, 13]: 0.65 µM
CCNCCCCNCC1CCC1CNCCCCNCC (centres unmarked) [SL-11100]	–	–	–	–	–	–	–	–	–	–	–	–	IC50 [7, 13]: 2.2 µM
CCNCCCCNC/C=C\CNCCCCNCC [SL-11102]	> 31.2 µM	0.03 µM	0.73 µM	0.15 µM	0.15 µM	0.027 µM	0.73 µM	12.4 µM	> 31.2 µM	> 31.2 µM	0.15 µM	0.15 µM	EC50 ([10]; Homo sapiens, DuPro): 0.15 µM
CCNCCCCNCc1ccccc1CNCCCCNCC [SL-11104]	> 31.2 µM	9.4 µM	25.8 µM	> 31.2 µM	14.7 µM	9.4 µM	25.8 µM	0.43 µM	> 31.2 µM	> 31.2 µM	14.7 µM	–	–
CCNCCCNCC1CCCC1NCCCNCC (centres unmarked) [SL-11105]	> 31.2 µM	1.6 µM	25.2 µM	0.43 µM	25.9 µM	1.6 µM	25.2 µM	> 31.2 µM	> 31.2 µM	> 31.2 µM	25.9 µM	> 31.2 µM	IC50 ([3]; 144 h, read-out: concentration needed for 50% growth inhibition (ID50) PC-3, Table 2, MTT six days after drug treatment): > 31.2 µM; EC50 ([10]; Homo sapiens, DuPro): 0.43 µM
CCNC/C=C\CNC/C=C\CNCCCCNCC [SL-11119]	> 31.2 µM	0.08 µM	0.97 µM	–	–	0.08 µM	0.97 µM	–	–	–	–	0.44 µM	EC50 ([10]; Homo sapiens, DuPro): 0.44 µM
CCNCCCCNCCCCNCCCCNCCCCNC/C=C\CNCCCCNCCCCNCCCCNCCCCNCC [SL-11150]	–	–	–	–	–	–	–	–	–	–	–	–	EC50 ([4]; survival of cultured DU145 cells): 0.11 µM; EC50 [10]: 0.48 µM; EC50 [5]: 0.23 µM
